pEC50, pKd: −log10 of the molar value. ≈ marks a conversion by molar mass, not a printed value. Where “and” joins values, the source holds several entries; their conditions need not be identical. Equal values may be shown once. Read-outs that look alike come from different tables or passages of the source. Positions of bridges follow the written chain, without caps; N, C: chain ends. Non-standard residues stand in square brackets, D forms with d. Residues, ends and D or L forms follow the SMILES beside them. dPhe(4-CF3) = N[C@H](Cc1ccc(C(F)(F)F)cc1)C(=O)O; dTrp(6-F) = N[C@H](Cc1c[nH]c2cc(F)ccc12)C(=O)O; Lys(N3) = [N-]=[N+]=NCCCC[C@H](N)C(=O)O; R8 = C=CCCCCCC[C@@](C)(N)C(=O)O; Cba = N[C@@H](CC1CCC1)C(=O)O; R5 = C=CCCC[C@@](C)(N)C(=O)O; S5 = C=CCCC[C@](C)(N)C(=O)O; βAla = NCCC(=O)O
Columns and labels:
human Mdm2 1–125 = target: T1, human Mdm2 1–125 (Homo sapiens, UniProt Q00987); experiment: Mdm2 binding by competitive fluorescence anisotropy assay (FP binding)
T1 construct: GST (N); His6 (internal); TEV cleavage site (ENLYFQG) (internal); made in house; host or cells: BL21 (DE3) Rosetta T1R Escherichia coli
T1 sequence (Q00987 with tags, fused parts or gaps): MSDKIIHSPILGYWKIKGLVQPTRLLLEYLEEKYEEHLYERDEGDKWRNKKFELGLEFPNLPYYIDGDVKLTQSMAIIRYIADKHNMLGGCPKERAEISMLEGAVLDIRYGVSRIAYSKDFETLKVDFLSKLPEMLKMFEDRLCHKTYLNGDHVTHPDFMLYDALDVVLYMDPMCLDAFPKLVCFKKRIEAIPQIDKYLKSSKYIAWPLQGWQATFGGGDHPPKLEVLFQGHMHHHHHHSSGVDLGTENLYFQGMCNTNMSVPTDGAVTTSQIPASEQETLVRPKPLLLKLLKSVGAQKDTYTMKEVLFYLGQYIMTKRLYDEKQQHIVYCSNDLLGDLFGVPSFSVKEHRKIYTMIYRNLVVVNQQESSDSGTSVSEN

[1] = test system: p53 responsive β-lactamase reporter in HCT116 cells; experiment: cells; assay type: cell-based
Method in brief: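 HCT116 cells stably carrying a p53-responsive β-lactamase reporter, seeded at 8000 cells/well, with 0.5% DMSO final. Reporter activity read by ToxBLAzer Dual Screen. Values are geometric means of at least three biological replicates.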

[2] = Lactate dehydrogenase (LDH) release assay; assay type: cell-based
Method in brief: (§1)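 LDH release, fluorometric membrane-integrity read-out; HCT116 with stable p53-responsive β-lactamase reporter; 8000 cells/well; 0.5% DMSO final; geometric mean, n≥3 biological replicates.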

[3] = test system: Jump-In T-REx CHO-K1 BLA cells; experiment: cells; assay type: cell-based
[4] = Solubility assay (kinetic solubility, PBS pH 7); assay type: physicochemical
Method in brief: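 Reference standards were made by diluting the 10 mM stock to 100 µM in acetonitrile:methanol:DMSO 10:80:10. Solubility in µM was calculated as the sample peak area divided by the standard peak area, multiplied by the standard concentration.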

[5] = Circular dichroism (CD) helicity; assay type: physicochemical
Protocol: A total of 5 µL of the 10 mM stock peptide was mixed with 45 µL of 100% methanol, and dried for 2 h in the SpeedVac concentrator (Thermo Scientific). The dried peptide was reconstituted in a buffer (1 mM Hepes pH 7.4 and 5% methanol) to a concentration of 1 mM. The peptide sample was placed in a quartz cuvette with a path length of 0.2 cm. The peptide concentration was determined by the absorbance of the peptide at […]. The CD spectrum was recorded from 300 to 190 nm using the Chirascan-plus qCD machine (Applied Photophysics, Surrey, UK), at 25 °C. All experiments were done in duplicates. The CD spectrum was converted to mean residue ellipticity before deconvolution and estimation of the secondary structure components of the peptide using the CDNN software (distributed by Applied Photophysics). Measurements were taken at least twice and were reported as arithmetic means.

HCT116 cells = experiment: Lactate dehydrogenase (LDH) release assay; assay type: cell-based
Method in brief: as §1

[6] = 0% FBS 4Hr, read-out: p53 reporter assay EC50
[7] = 0% FBS 16Hr, read-out: p53 reporter assay EC50
[8] = 10% FBS 4Hr, read-out: p53 reporter assay EC50
[9] = 0% FBS 4Hr, read-out: TETCHO: Counterscreen EC50
[10] = pH 7, aqueous buffer, kinetic from dmso stock, pH 7, PBS, read-out: Solubility
[11] = FP binding assay KD, Tween-20 <CMC
[12] = 10% FBS 16Hr, read-out: p53 reporter assay EC50
[13] = read-out: Cell EC50 (4 hr, 0% FBS), p53 reporter assay, 4 hr, 0% FBS
[14] = read-out: Cell EC50 (16 hr, 10% FBS), p53 reporter assay, 16 hr, 10% FBS
[15] = 0% FBS 4Hr, read-out: LDH: Cytotoxicity assay EC50
[16] = 10% FBS 16Hr, read-out: LDH: Cytotoxicity assay EC50
[17] = 4 hours, 0% serum, read-out: LDH Cytotoxicity assay EC50
[18] = 10% FBS 16Hr, read-out: TETCHO: Counterscreen EC50
[19] = 4 hours, 0% serum, read-out: TETCHO Counterscreen EC50

Structure (SMILES)	pEC50 [1, 6]	pEC50 ([2]; LDH: Cytotoxicity assay EC50)	TETCHO: Counterscreen % Effect ([3]; 0% FBS 4Hr)	pEC50 [3, 9]	solubility kinetic [4, 10]	CD % Helicity [5]	pKd (human Mdm2 1–125; [11])	p53 reporter assay % Effect ([1]; 0% FBS 4Hr)	p53 reporter assay % Effect ([1]; 10% FBS 16Hr)	pEC50 [1, 12]	pEC50 [2, 15]	pEC50 [2, 16]	LDH: Cytotoxicity assay % Effect (HCT116 cells; 0% FBS 4Hr)	LDH: Cytotoxicity assay % Effect (HCT116 cells; 10% FBS 16Hr)	TETCHO: Counterscreen % Effect ([3]; 10% FBS 16Hr)	pEC50 [3, 18]	other results
CC(=O)N[C@@H](CC(C)C)C(=O)N[C@H](C(=O)N[C@@H](Cc1ccccc1)C(=O)N[C@]1(C)CCCCCCC=CCCC[C@@](C)(C(=O)N[C@@H](CO)C(=O)N[C@@H](C)C(=O)N[C@@H](C)C(N)=O)NC(=O)[C@@H](CC2CCC2)NC(=O)[C@H](CC(C)C)NC(=O)[C@H](CCC(N)=O)NC(=O)[C@H](Cc2c[nH]c3ccccc23)NC(=O)[C@H](Cc2ccc(O)cc2)NC(=O)[C@H](CCC(=O)O)NC1=O)[C@@H](C)O [MP-009]	5.08	< 4.29	4.797%	< 4.30	79.3 µM (≈ 142 µg/mL)	23.85%	–	–	–	–	–	–	–	–	–	–	pKd (human Mdm2 1–125; read-out: FP binding assay KD): 5.65; pEC50 [1, 7]: 4.53; pEC50 [1, 8]: < 4.30; TETCHO: Counterscreen % Effect ([3]; 0% FBS 16Hr): -1.31%
CC(=O)N[C@@H](C(=O)N[C@H](C)C(=O)N[C@H](Cc1c[nH]c2cc(F)ccc12)C(=O)N[C@H](Cc1ccc(O)cc1)C(=O)N[C@H](C)C(=O)N[C@]1(C)CCCC=CCCC[C@](C)(C(=O)N[C@H](CC(C)C)C(=O)N[C@H](CO)C(=O)N[C@H](C)C(=O)N[C@H](C)C(=O)N[C@H](C)C(=O)N[C@H](C)C(=O)N[C@H](C)C(=O)N[C@H](C)C(N)=O)NC(=O)[C@@H](CCC(N)=O)NC(=O)[C@@H](CCC(=O)O)NC(=O)[C@@H](Cc2ccc(C(F)(F)F)cc2)NC1=O)[C@H](C)O [MP-042] (Ac-[dT][dA][dTrp(6-F)][dY][dA][R5][dPhe(4-CF3)][dE][dQ][R5][dL][dS][dA][dA][dA][dA][dA][dA]-NH2; staple 6-10)	6.21	–	12.4%	< 4.30	–	57.4%	8.49	91.28%	98.03%	6.55	< 4.29	< 4.29	8.154%	15.87%	2.411%	< 4.30	pKd (human Mdm2 1–125; Binding KD): 7.52; overall improvement of cellular activity compared to initial parent peptide (MP-769) ([1]; 10% serum, 16-hour): > 178 fold; pEC50 [1, 13]: 6.22; pEC50 [1, 14]: 6.55 and 6.52; pEC50 [2, 17]: < 4.30; pEC50 [3, 19]: < 4.30
CC(=O)N[C@@H](CCCCN=[N+]=[N-])C(=O)NCCC(=O)N[C@@H](CC(C)C)C(=O)N[C@H](C(=O)N[C@@H](Cc1ccccc1)C(=O)N[C@]1(C)CCCCCCC=CCCC[C@@](C)(C(=O)N[C@@H](CO)C(=O)N[C@@H](C)C(=O)N[C@@H](C)C(N)=O)NC(=O)[C@H](CC2CCC2)NC(=O)[C@H](CCC(N)=O)NC(=O)[C@H](C)NC(=O)[C@H](Cc2c[nH]c3ccccc23)NC(=O)[C@H](Cc2ccc(O)cc2)NC(=O)[C@H](Cc2c[nH]c3ccccc23)NC1=O)[C@@H](C)O [MP-185] (Ac-[Lys(N3)][βAla]LTF[R8]WYWAQ[Cba][S5]SAA-NH2; staple 6-13)	6.86	< 4.30	4.64%	< 4.30	2 µM (≈ 4.05 µg/mL)	–	–	–	–	–	–	–	–	–	–	–	pKd (human Mdm2 1–125; read-out: FP binding assay KD): 7.01; pEC50 [1, 7]: 6.67; p53 reporter assay % Effect ([1]; 10% FBS 4Hr): 14.92%; pEC50 [1, 8]: 5.73; TETCHO: Counterscreen % Effect ([3]; 0% FBS 16Hr): 9.8%
CC(=O)N[C@@H](C(=O)N[C@H](C)C(=O)N[C@H](Cc1c[nH]c2cc(F)ccc12)C(=O)N[C@H](Cc1ccc(O)cc1)C(=O)N[C@H](C)C(=O)N[C@]1(C)CCCC=CCCC[C@](C)(C(=O)N[C@H](CC(C)C)C(=O)N[C@H](CO)C(=O)N[C@H](C)C(=O)N[C@H](C)C(=O)N[C@H](C)C(N)=O)NC(=O)[C@@H](CCC(N)=O)NC(=O)[C@@H](CCC(=O)O)NC(=O)[C@@H](Cc2ccc(C(F)(F)F)cc2)NC1=O)[C@H](C)O [MP-0230] (Ac-[dT][dA][dTrp(6-F)][dY][dA][R5][dPhe(4-CF3)][dE][dQ][R5][dL][dS][dA][dA][dA]-NH2; staple 6-10)	5.84	< 4.29	12.86%	< 4.30	140 µM (≈ 253 µg/mL)	49.95%	–	96.81%	84.65%	5.36	–	–	–	–	-3.99%	< 4.30	pKd (human Mdm2 1–125; Tween-20 <CMC, read-out: FP binding assay KD): 8.51
CC(=O)N[C@@H](CCCCN=[N+]=[N-])C(=O)NCCC(=O)N[C@@H](CC(N)=O)C(=O)N[C@H](C(=O)N[C@@H](Cc1ccccc1)C(=O)N[C@]1(C)CCCCCCC=CCCC[C@@](C)(C(=O)N[C@@H](CC(N)=O)C(=O)N[C@@H](CC(N)=O)C(=O)N[C@@H](CC(N)=O)C(N)=O)NC(=O)[C@H](CC2CCC2)NC(=O)[C@H](CCC(N)=O)NC(=O)[C@H](CC(N)=O)NC(=O)[C@H](Cc2c[nH]c3ccccc23)NC(=O)[C@H](Cc2ccc(O)cc2)NC(=O)[C@H](CC(N)=O)NC1=O)[C@@H](C)O [MP-359, azide-ATSP-7041 (L1N, E5N, A8N, S12N, A13N, A14N)] (Ac-[Lys(N3)][βAla]NTF[R8]NYWNQ[Cba][S5]NNN-NH2; staple 6-13)	–	–	8.184%	< 4.30	53.7 µM (≈ 113 µg/mL)	39.55%	–	–	–	–	–	–	–	–	–	–	pKd (human Mdm2 1–125; Binding KD): 7.82; pEC50 ([1]; 0% FBS 4Hr, read-out: p53 reporter assay: EC50): 4.49; pEC50 ([2]; 0% FBS 4Hr, read-out: LDH: Cytotoxicity assay: EC50): < 4.30; LDH: Cytotoxicity assay: % Effect (HCT116 cells; 0% FBS 4Hr): -2.842%
CC(C)C[C@@H](NC(=O)[C@@]1(C)CCCC=CCCC[C@@](C)(NC(=O)[C@@H](C)NC(=O)[C@@H](Cc2ccc(O)cc2)NC(=O)[C@@H](Cc2c[nH]c3cc(F)ccc23)NC(=O)[C@@H](C)NC(=O)[C@H](N)[C@H](C)O)C(=O)N[C@H](Cc2ccc(C(F)(F)F)cc2)C(=O)N[C@H](CCC(=O)O)C(=O)N[C@H](CCC(N)=O)C(=O)N1)C(=O)N[C@H](CO)C(N)=O [MP-795] (H-[dT][dA][dTrp(6-F)][dY][dA][R5][dPhe(4-CF3)][dE][dQ][R5][dL][dS]-NH2; staple 6-10)	5.29	–	35.97%	< 4.30	–	–	6.82	142.6%	21.51%	< 4.30	< 4.29	< 4.29	13.17%	16.65%	0.2467%	< 4.30	solubility kinetic ([4]; pH 7, Solubility): 1 µM (≈ 1.55 µg/mL)
CC(=O)N[C@@H](C(=O)N[C@H](C)C(=O)N[C@H](Cc1c[nH]c2cc(F)ccc12)C(=O)N[C@H](Cc1ccc(O)cc1)C(=O)N[C@H](C)C(=O)N[C@]1(C)CCCC=CCCC[C@](C)(C(=O)N[C@H](CC(C)C)C(=O)N[C@H](CO)C(N)=O)NC(=O)[C@@H](CCC(N)=O)NC(=O)[C@@H](CCC(=O)O)NC(=O)[C@@H](Cc2ccc(C(F)(F)F)cc2)NC1=O)[C@H](C)O [MP-797] (Ac-[dT][dA][dTrp(6-F)][dY][dA][R5][dPhe(4-CF3)][dE][dQ][R5][dL][dS]-NH2; staple 6-10)	5.44	–	17.03%	< 4.30	–	26.6%	6.59	74.63%	8.593%	< 4.30	< 4.29	< 4.29	33.6%	29.91%	-11.41%	< 4.30	improvement of cellular activity vs MP-769 ([1]; 0% serum, 4-hour assay): 3 fold; pEC50 [1, 13]: 5.44; pEC50 [1, 14]: < 4.30; pEC50 [2, 17]: < 4.30; pEC50 [3, 19]: < 4.30

Source: paper PMC10786919, “Design-rules for stapled peptides with in vivo activity and their application to Mdm2/X antagonists” (Nature Communications, 2024)
